The record followed here is patent publication US20100048543A1, “PYRIMIDINE COMPOUNDS HAVING TIES (TEK) INHIBITORY ACTIVITY” (ASTRAZENECA AB, priority 2005, published 2010).

Test [1] has as its target T1, Tie2 receptor tyrosine kinase (Homo sapiens, UniProt Q02763).
T1 construct: consist of only the intracellular portion C-terminal portion of the respective receptor, within which is found the kinase domain; made in house; host or cells: baculovirus/Sf21 insect cells (or alternative equivalent), used as cleared lysate
Put plainly: In vitro receptor tyrosine kinase inhibition assay, Test (a) (ELISA). The following applies: recombinant human Tie2 kinase domain lysate, ATP 5 micromolar (or Km). The format is biochemical. As for the experimental part:
a. In vitro Receptor Tyrosine Kinase Inhibition Assay
To test for inhibition of Tie2 receptor tyrosine kinase, compounds are evaluated in a non-cell based protein kinase assay by their ability to inhibit the protein kinase enzyme phosphorylation of a tyrosine containing polypeptide substrate in an ELISA based microtitre plate assay. In this particular case, the assay was to determine the IC50, for three different recombinant human tyrosine kinases Tie2, KDR and Flt.
To facilitate production of the tyrosine kinases, recombinant receptor genes were produced using standard molecular biology cloning and mutagenesis techniques. These recombinant proteins fragments encoded within these genes consist of only the intracellular portion C-terminal portion of the respective receptor, within which is found the kinase domain. The recombinant genes encoding the kinase domain containing fragments were cloned and expressed in standard baculovirus/Sf21 system (or alternative equivalent).
Lysates were prepared from the host insect cells following protein expression by treatment with ice-cold lysis buffer (20 mM N-2-hydroxyethylpiperizine-N′-2-ethanesulphonic acid (HEPES) pH7.5, 150 mM NaCl, 10% glycerol, 1% Triton X-100, 1.5 mM MgCl2, 1 mM ethylene glycol-bis (β-aminoethyl ether) N′,N′,N′,N′-tetraacetic acid (EGTA), plus protease inhibitors and then cleared by centrifugation. Tie2, KDR and Flt1 lysates were stored in aliquots at −80° C.
Constitutive kinase activity of these recombinant proteins was determined by their ability to phosphorylate a synthetic peptide (made up of a random co-polymer of Glutamic Acid, Alanine and Tyrosine in the ratio of 6:3:1). Specifically, Nunc Maxisorb™ 96-well immunoplates were coated with 100 microlitres of synthetic peptide Sigma P3899 (1 mg/ml stock solution in PBS diluted 1:500 in PBS prior to plate coating) and incubated at 4° C. overnight. Plates were washed in 50 mM HEPES pH 7.4 at room temperature to remove any excess unbound synthetic peptide.
The immobilised phospho-peptide product of the reaction was detected by immunological methods. Firstly, plates were incubated for 4 hours at room temperature with murine monoclonal anti-phosphotyrosin-HRP (Horseradish Peroxidase) conjugated antibodies (4G10 from Upstate Biotechnology UBI 16-105). Following extensive washing with PBS-T, HRP activity in each well of the plate was measured colorimetrically using 22′-Azino-di-[3-ethylbenzthiazoline sulfonate (6)]diammonium salt crystals ABTS (Sigma P4922—prepared as per manufactures instructions) as a substrate incubated for 30-45 minutes to allow colour development, before 100 ul of 1M H2SO4 was added to stop the reaction.
Quantification of colour development and thus enzyme activity was achieved by the measurement of absorbance at 405 nm on a Molecular Devices ThermoMax microplate reader. Kinase inhibition for a given compound was expressed as an IC50 value. This was determined by calculation of the concentration of compound that was required to give 50% inhibition of phosphorylation in this assay. The range of phosphorylation was calculated from the positive (vehicle plus ATP) and negative (vehicle minus ATP) control values.

For test [2], the target named is T2, Tie2 receptor (Homo sapiens, UniProt Q02763).
T2 construct: one can use natural cell lines or primary cells which are known to express the receptor of choice; endogenous in cells; host or cells: EA.hy926/B3 cells (HUVEC named as an alternative)
Nature of the test: Cellular Tie2 autophosphorylation assay, Test (b). The test is classed as cell-based. Conditions: Ang1 ligand stimulated whole cells (e.g. EA.hy926/B3), immunoprecipitation/western blot; read-out: IC50 (μM) Test (b): Inhibition of autophosphorylation of Tie2 receptor tyrosine kinase. The text has this:
b. Cellular Tie2 Autophosphorylation Assay
This assay is based on measuring the ability of compounds to inhibit autophosphorylation of the Tie2 receptor which normally leads to the production of “activated” receptor that in turn initiates the particular signal transduction pathways associated with the receptor function.
Autophosphorylation can be achieved by a number of means. It is known that expression of recombinant kinase domains in baculoviral systems can lead to the production of phosphorylated and activated receptor. It is also reported that over expression of receptors in recombinant cell lines can itself lead to receptor autophosphorylation in the absence of the ligand (Heldin C-H. 1995 Cell: 80, 213-223; Blume-J. P, Hunter T. 2001 Nature: 411, 355-65). Furthermore, there are numerous literature examples in which chimaeric receptors have been constructed. In these cases the natural, external cell surface domain of the receptor has been replaced with that of a domain which is known to be readily dimerised via the addition of the appropriate ligand (e.g. TrkA-Tie2/NGF ligand (Marron, M. B., et al., 2000 Journal of Biological Chemistry: 275:39741-39746) or C-fins-Tie-1/CSF-1 ligand (Kontos, C. D., et al., 2002 Molecular and Cellular Biology: 22, 1704-1713). Thus when the chimaeric receptor expressed in a host cell line and the respective ligand is added, this induces autophosphorylation of the chimeric receptor's kinase domain. This approach has the advantage of often allowing a known (and often easily obtained) ligand to be used instead of having to identify and isolate the natural ligand for each receptor of interest.
Naturally if the ligand is available one can use natural cell lines or primary cells which are known to express the receptor of choice and simply stimulate with ligand to achieve ligand induced phosphorylation. The ability of compounds to inhibit autophosphorylation of the Tie2 receptor, which is expressed for example in EA.hy926/B3 cells (supplied by J. McLean/B. Tuchi, Univ. of N. Carolina at Chapel Hill, CB-4100, 300 Bynum Hall, Chapel Hill, N.C. 27599-41000, USA) or primary HUVEC (human umbilical vein endothelial cells—available from various commercial sources), can measured by this assay.
Natural Ang1 ligand can be isolated using standard purification technology from either tumour cell supernatants or alternatively the Ang1 gene can be cloned and expressed recombinantly using stand molecular biology techniques and expression systems. In this case one can either attempt to produce the ligand either in its native state or as recombinant protein which for example may have been genetically engineered to contain additional of purification tags (eg. polyhistidine peptides, antibody Fc domains) to facilitate the process.
Using the ligand stimulation of either EA.hy926/B3 or HUVEC cellular Tie2 receptor as the example, a Ang1 ligand stimulated cellular receptor phosphorylation assay can be constructed which can be used to analyse to determine the potential of compounds to inhibit this process. For example EA.hy926/B3 cells were grown in the appropriate tissue culture media plus 10% foetal calf serum (FCS) for two days in 6 well plates starting with an initial seeding density of 5×10^5 cells/well. On the third day the cells were serum starved for a total of 2 hours by replacing the previous media with media containing only 1% FCS. After 1 hour 40 minutes of serum starvation the media was removed and replace with 1 ml of the test compound dilutions (compound dilutions made in serum starvation media yet keeping the DMSO concentration below 0.8%). After 1.5 hours of serum starvation orthovanidate was added to a final concentration of 0.1 mM for the final 10 minutes of serum starvation. […]

T1 sequence (Q02763 770-1124 limits assumed): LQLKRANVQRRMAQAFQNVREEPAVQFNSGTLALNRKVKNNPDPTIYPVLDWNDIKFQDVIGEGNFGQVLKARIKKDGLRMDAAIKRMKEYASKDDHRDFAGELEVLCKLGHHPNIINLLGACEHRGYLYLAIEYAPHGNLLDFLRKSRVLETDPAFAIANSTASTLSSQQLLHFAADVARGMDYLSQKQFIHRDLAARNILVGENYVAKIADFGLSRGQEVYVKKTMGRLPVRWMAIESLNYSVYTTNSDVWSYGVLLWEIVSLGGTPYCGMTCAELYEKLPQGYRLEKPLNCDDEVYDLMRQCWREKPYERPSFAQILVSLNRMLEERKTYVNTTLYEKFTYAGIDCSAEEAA
T2 sequence (Q02763 23-1124): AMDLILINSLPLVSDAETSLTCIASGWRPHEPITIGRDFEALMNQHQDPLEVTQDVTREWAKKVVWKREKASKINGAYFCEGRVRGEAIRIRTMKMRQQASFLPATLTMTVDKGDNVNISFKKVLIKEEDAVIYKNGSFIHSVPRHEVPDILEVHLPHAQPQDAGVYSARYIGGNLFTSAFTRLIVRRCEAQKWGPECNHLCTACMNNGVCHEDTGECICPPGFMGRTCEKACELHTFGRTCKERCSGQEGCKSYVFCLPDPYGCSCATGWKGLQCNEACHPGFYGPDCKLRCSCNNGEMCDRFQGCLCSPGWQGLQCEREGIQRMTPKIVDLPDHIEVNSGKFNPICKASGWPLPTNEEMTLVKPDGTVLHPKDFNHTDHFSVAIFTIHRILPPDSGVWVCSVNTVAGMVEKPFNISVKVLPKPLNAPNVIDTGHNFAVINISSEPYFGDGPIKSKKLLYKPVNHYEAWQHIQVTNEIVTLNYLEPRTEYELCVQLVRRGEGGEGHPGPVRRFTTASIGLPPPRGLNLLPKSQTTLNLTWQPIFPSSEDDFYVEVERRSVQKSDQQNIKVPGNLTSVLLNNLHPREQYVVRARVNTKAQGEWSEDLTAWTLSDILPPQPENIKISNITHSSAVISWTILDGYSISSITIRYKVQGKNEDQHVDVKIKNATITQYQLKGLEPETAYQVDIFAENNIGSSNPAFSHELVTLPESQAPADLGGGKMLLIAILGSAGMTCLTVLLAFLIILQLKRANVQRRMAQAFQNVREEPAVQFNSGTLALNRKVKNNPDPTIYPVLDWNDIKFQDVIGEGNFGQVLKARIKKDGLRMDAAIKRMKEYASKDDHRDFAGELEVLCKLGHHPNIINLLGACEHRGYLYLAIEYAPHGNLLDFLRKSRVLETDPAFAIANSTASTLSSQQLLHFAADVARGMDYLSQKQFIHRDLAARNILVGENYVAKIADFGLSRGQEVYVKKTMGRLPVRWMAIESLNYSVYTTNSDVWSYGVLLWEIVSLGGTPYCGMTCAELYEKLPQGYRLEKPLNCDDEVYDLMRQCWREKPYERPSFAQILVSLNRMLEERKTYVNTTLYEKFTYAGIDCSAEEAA

One may read the IC50 as the midpoint of a concentration-inhibition curve. `Cc1ccc(CNC(=O)Nc2cccc(C#Cc3cnc(N)nc3)c2)o1` [Example 6, N-{3-[(2-aminopyrimidin-5-yl)ethynyl]phenyl}-N′-[(5-methyl-2-furyl)methyl]urea]: the IC50 came to 20 µM in test [1] and 1.7 µM in test [2].

Consider `Nc1ncc(C#Cc2cccc(NC(=O)NC(CCO)c3ccccc3)c2)cn1` (stereo not drawn) [Example 12, N-{3-[(2-aminopyrimidin-5-yl)ethynyl]phenyl}-N′-(3-hydroxy-1-phenylpropyl)urea], for which the IC50 in test [1] is 25 µM; in test [2] it was 1.3 µM.

Turning to `Cc1ccc(CNC(=O)Nc2cccc(C#Cc3cnc(NCCCN4CCCCC4)nc3)c2)o1` [Example 14, N-[(5-methyl-2-furyl)methyl]-N′-[3-({2-[(3-piperidin-1-ylpropyl)amino]pyrimidin-5-yl}ethynyl)phenyl]urea], the IC50 was 20 µM in test [1] and 0.38 µM in test [2].

On to `Nc1ncnc(N)c1C#Cc1cccc(NC(=O)NCc2cccnc2)c1` [Example 45, N-{3-[(4,6-diaminopyrimidin-5-yl)ethynyl]phenyl}-N′-(pyridin-3-ylmethyl)urea], for which the IC50 is 3.3 µM in test [1] and 0.2 µM in test [2].

On to `Nc1ncnc(N)c1C#Cc1cccc(NC(=O)NCC2CCCO2)c1` (stereo not drawn) [Example 47, N-{3-[(4,6-diaminopyrimidin-5-yl)ethynyl]phenyl}-N′-(tetrahydrofuran-2-ylmethyl)urea], for which the IC50 stood at 1.5 µM in test [1] and 1.9 µM in test [2].

For `Cc1conc1CNC(=O)Nc1cccc(C#Cc2c(N)ncnc2N)c1` [Example 50, N-{3-[(4,6-diaminopyrimidin-5-yl)ethynyl]phenyl}-N′-[(4-methylisoxazol-3-yl)methyl]urea], the IC50 in test [1] amounted to 9 µM; in test [2], 3.6 µM.
